From US20220395500A1, “SMALL MOLECULE ACTIVATORS OF INTERFERON REGULATORY FACTOR 3 AND METHODS OF USE THEREOF” (Neuralexo, Inc., priority 2020, published 2022)

Assays:
J774-Dual cytotoxicity = format: cell-based, mouse; details: mouse, J774-Dual cells, read-out: J774 cytotox CC50
Protocol: The OTRADI Small Molecule Library of approximately 246,000 diverse compounds (see below for description) was screened using the THP1-Dual based HTS platform described above. All transfer steps in the screen are fully automated, thus reducing variability. Primary screening included a single data point or dose for each molecule. After data normalization was applied for each assay run, “hit” selection was performed on the plates that pass the quality control (QC) criterion. Hits were defined as samples having values above the activity cutoff determined based on noise level of the assay to reduce false positive rates. […] The ratio of ISRE:NFκB activity was also calculated as a selectivity index for prioritizing hit selection. Primary hits underwent secondary screening to determine the 50% effective concentration (EC50) and 50% cytotoxic concentration (CC50) of these agents using an 8-point dose-response curve in the human THP1-Dual cells. Cytotoxicity was measured in the plate using Cell Titer Glo (Promega). Identified candidate compounds were further screened (orthogonal screen) for cross species activity in the validated mouse J774-Dual assay using an 8-point dose-response format to determine EC50 and CC50 values as well as ISRE:NFκB ratios. A general process flow for the experimental design laid out above is depicted at FIG. 12.

[1] = THP1-Dual cytotoxicity (Cell Titer Glo, ATP); format: cell-based, human; details: human, THP1-Dual cells, read-out: Thp1 cytotox CC50
Excerpt: FIG. 9C is a CC50 (50% cytotoxic concentration) graph of AV-C dependent IRF activation in THP1-Dual cells, determined with an 8-point dose response experiment. Cell viability was monitored based on quantitation of ATP present, as an indicator of metabolically active cells, where luminescence is proportional to the amount of ATP present, using Cell-Titer Glo (Promega).
The OTRADI Small Molecule Library of approximately 246,000 diverse compounds (see below for description) was screened using the THP1-Dual based HTS platform described above. All transfer steps in the screen are fully automated, thus reducing variability. Primary screening included a single data point or dose for each molecule. After data normalization was applied for each assay run, “hit” selection was performed on the plates that pass the quality control (QC) criterion. Hits were defined as samples having values above the activity cutoff determined based on noise level of the assay to reduce false positive rates. In the pilot study discussed above this activity value was >3σ above the ISRE mean with the added criteria of NFκB activation being lower than […] from the mean to identify IRF selective compounds. The ratio of ISRE:NFκB activity was also calculated as a selectivity index for prioritizing hit selection. Primary hits underwent secondary screening to determine the 50% effective concentration (EC50) and 50% cytotoxic concentration (CC50) of these agents using an 8-point dose-response curve in the human THP1-Dual cells. Cytotoxicity was measured in the plate using Cell Titer Glo (Promega). Identified candidate compounds were further screened (orthogonal screen) for cross species activity in the validated mouse J774-Dual assay using an 8-point dose-response format to determine EC50 and CC50 values as well as ISRE:NFκB ratios. A general process flow for the experimental design laid out above is depicted at FIG. 12.

Row | SMILES | CC50 (J774-Dual cytotoxicity; Mouse Reporter Cell Line) [µM] | CC50 ([1]; Human Reporter Cell Line) [µM] | CC50 (J774-Dual cytotoxicity; Mouse Reporter Cell Line J774) [µM] | CC50 ([1]; Human Reporter Cell Line THP1) [µM]
1 | O=C(Nc1ccc(N2CCN(C(=O)c3cccs3)CC2)cc1)c1cncc(-c2ccccc2)c1 [NA-40] | > 25 | > 25 | – | –
2 | CCOc1ccc(C(=O)Nc2ccc3oc(-c4cccnc4)nc3c2)cc1[N+](=O)[O-] [ND-44] | – | – | > 25 | > 25
3 | Cc1ccc(C(=O)Nc2nc(C)c(-c3ccccc3)s2)cc1[N+](=O)[O-] [ND-32] | – | – | > 25 | > 25
4 | O=C(Nc1ccc(N2CCN(C(=O)c3cccnc3)CC2)cc1)c1ccc(OCc2ccccc2)cc1 [NA-36] | > 25 | > 25 | – | –
5 | CCOc1ccc(C(=O)Nc2ccc(N3CCN(C(=O)c4cccs4)CC3)cc2)cc1[N+](=O)[O-] [NA-65] | > 10 | > 10 | – | –
6 | O=C(Nc1ccc(N2CCN(C(=O)c3ccncc3)CC2)cc1)c1ccc(OCc2ccccc2)cc1 [NA-37] | > 25 | > 25 | – | –
7 | Cc1ccc(-c2nc3cc(OCCCN4CCCC4)ccc3o2)cc1[N+](=O)[O-] [ND-83] | – | – | > 25 | > 25
8 | Cc1ccc(-c2nc3cc(O)ccc3o2)cc1[N+](=O)[O-] [ND-85] | – | – | > 25 | > 25
9 | COc1ccc(C(=O)Nc2cc(-c3nc4cc(C(C)C)ccc4o3)ccc2C)cc1 [ND-10] | – | – | > 25 | > 25
10 | O=C(c1cccs1)N1CCN(c2ccc(NS(=O)(=O)c3ccc(-c4ccccc4)cc3)cc2)CC1 [NA-69] | > 10 | > 10 | – | –
11 | O=C(Nc1ccc(N2CCN(C(=O)c3cccs3)CC2)cc1)c1cccc2ccccc12 [NA-11] | > 25 | > 25 | – | –
12 | Cc1cc2nc(-c3c[nH]c4ccccc34)oc2cc1C [ND-108] | – | – | > 10 | > 10
13 | COc1ccc(C(=O)Nc2nc(-c3cc4ccccc4oc3=O)cs2)cc1[N+](=O)[O-] [ND-29] | – | – | > 25 | > 25
14 | Cc1cc2nc(-c3ccc(C)c(Nc4[nH]c(=O)[nH]c(=O)c4[N+](=O)[O-])c3)oc2cc1C [ND-56] | – | – | > 25 | > 25
15 | Cc1ccc(-c2nc3cc(Cl)ccc3o2)cc1NC(=O)/C=C/c1cccc([N+](=O)[O-])c1 [ND-99] | – | – | > 25 | > 25
16 | CCOC(=O)C1=CCCC[C@H]1S(=O)(=O)Nc1ccc(F)cc1Cl [ND-72] | – | – | > 25 | > 25
17 | O=C(Nc1ccc(N2CCN(C(=O)c3cccs3)CC2)c(Cl)c1)c1ccc(OCc2ccccc2)cc1 [NA-73] | > 10 | > 10 | – | –
18 | O=C(c1cccs1)N1CCN(Cc2cn(Cc3ccc(Cl)cc3)nn2)CC1 [NA-56] | > 25 | > 25 | – | –
19 | O=C(NCCC(=O)N1CCN(C(=O)c2cccs2)CC1)c1ccc(OCc2ccccc2)cc1 [NA-54] | > 25 | > 25 | – | –
20 | Cc1cc(NC(=O)c2ccc(OCc3ccccc3)cc2)ccc1N1CCN(C(=O)c2cccs2)CC1 [NA-74] | > 10 | > 10 | – | –
21 | O=c1cc(NC[C@H](O)[C@H](O)[C@H](O)CO)[nH]c(=O)[nH]1 [ND-100] | – | – | > 25 | > 25
22 | COc1cc(C(=O)Nc2cc(-c3nc4cc(C(C)C)ccc4o3)ccc2C)cc(OC)c1OC [ND-14] | – | – | > 25 | > 25
23 | O=C(c1ccco1)N1CCN(c2ccccc2)CC1 [NA-5] | > 25 | > 25 | – | –
24 | Cc1ccc(-c2nc3cc(NC(=O)c4ccc(C)c([N+](=O)[O-])c4)ccc3o2)cc1 [ND-49] | – | – | > 25 | 5.52
25 | Cc1ccc(C(=O)Nc2cc(-c3nc4cc(C(C)C)ccc4o3)ccc2C)cc1C [ND-9] | – | – | > 25 | > 25
26 | CC1=NN(c2ccccc2)C(=O)C1 [ND-77] | – | – | > 25 | > 25
27 | Cc1ccc(-c2nc3cc(C(C)C)ccc3o2)cc1[N+](=O)[O-] [ND-57] | – | – | > 25 | > 25
28 | O=C(c1cccs1)N1CCN(Cc2cn(Cc3ccccc3Cl)nn2)CC1 [NA-58] | > 25 | > 25 | – | –
29 | COc1ccc(C(=O)Nc2ccc(OC)cc2OC)cc1 [ND-78] | – | – | > 25 | > 25
30 | O=C(Nc1ccc(N2CCN(C(=O)c3cccs3)CC2)cc1)c1ccc(Br)o1 [NA-8] | > 25 | > 25 | – | –
